Reference: ChEMBL document CHEMBL4507319 (2021)

Key:
[1] = system: Tyrosine-protein kinase ABL1 (Homo sapiens), P00519 [F317I]; settings: Compound concentration 1000.0 nM
[2] = system: Tyrosine-protein kinase ABL1 (Homo sapiens), P00519 [H396P]; settings: Compound concentration 1000.0 nM
[3] = system: Tyrosine-protein kinase ABL1 (Homo sapiens), P00519 [Y253F]; settings: Compound concentration 1000.0 nM
[4] = biological target: Cyclin-dependent kinase 4 (Homo sapiens) (UniProt P11802); settings: Compound concentration 1000.0 nM
[5] = biological target: Casein kinase I isoform alpha (Homo sapiens) (UniProt P48729); settings: Compound concentration 1000.0 nM
Casein kinase I isoform alpha (Homo sapiens), sequence (P48729 2-337 limits assumed): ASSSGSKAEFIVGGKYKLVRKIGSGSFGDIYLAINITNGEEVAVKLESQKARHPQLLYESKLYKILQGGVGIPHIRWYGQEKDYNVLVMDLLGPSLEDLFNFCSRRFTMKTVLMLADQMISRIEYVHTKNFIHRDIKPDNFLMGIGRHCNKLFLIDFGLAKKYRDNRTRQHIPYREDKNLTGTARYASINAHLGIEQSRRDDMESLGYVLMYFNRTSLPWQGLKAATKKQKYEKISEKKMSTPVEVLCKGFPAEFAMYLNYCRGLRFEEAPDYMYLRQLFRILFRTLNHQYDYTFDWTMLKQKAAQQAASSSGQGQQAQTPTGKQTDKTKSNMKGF

[6] = biological target: Serine/threonine-protein kinase DCLK1 (Homo sapiens) (UniProt O15075); settings: Compound concentration 1000.0 nM
Serine/threonine-protein kinase DCLK1 (Homo sapiens), sequence (O15075 whole entry): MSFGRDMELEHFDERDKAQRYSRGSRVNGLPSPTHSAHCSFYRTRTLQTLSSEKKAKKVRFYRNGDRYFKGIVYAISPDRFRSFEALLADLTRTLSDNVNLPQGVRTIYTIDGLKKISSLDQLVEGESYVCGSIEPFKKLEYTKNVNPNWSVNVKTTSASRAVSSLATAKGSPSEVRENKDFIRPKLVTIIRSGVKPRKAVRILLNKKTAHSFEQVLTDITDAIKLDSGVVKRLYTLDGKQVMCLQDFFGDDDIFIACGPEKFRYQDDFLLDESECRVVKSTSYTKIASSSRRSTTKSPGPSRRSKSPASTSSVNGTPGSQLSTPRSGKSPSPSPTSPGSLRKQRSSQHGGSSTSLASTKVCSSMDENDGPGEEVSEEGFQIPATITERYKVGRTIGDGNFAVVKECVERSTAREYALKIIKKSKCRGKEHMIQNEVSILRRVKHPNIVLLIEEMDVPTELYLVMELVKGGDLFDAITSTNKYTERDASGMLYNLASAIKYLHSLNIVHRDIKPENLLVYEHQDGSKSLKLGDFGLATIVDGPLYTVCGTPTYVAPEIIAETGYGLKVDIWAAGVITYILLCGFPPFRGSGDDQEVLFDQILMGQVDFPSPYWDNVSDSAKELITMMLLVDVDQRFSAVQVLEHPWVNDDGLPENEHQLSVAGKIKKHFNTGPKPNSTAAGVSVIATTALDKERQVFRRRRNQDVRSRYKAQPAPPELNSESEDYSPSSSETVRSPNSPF

[7] = biological target: Serine/threonine-protein kinase DCLK2 (Homo sapiens) (UniProt Q8N568); settings: Compound concentration 1000.0 nM
[8] = biological target: T1, Serine/threonine-protein kinase haspin (Homo sapiens) (UniProt Q8TF76); settings: Compound concentration 1000.0 nM
T1 sequence (whole entry): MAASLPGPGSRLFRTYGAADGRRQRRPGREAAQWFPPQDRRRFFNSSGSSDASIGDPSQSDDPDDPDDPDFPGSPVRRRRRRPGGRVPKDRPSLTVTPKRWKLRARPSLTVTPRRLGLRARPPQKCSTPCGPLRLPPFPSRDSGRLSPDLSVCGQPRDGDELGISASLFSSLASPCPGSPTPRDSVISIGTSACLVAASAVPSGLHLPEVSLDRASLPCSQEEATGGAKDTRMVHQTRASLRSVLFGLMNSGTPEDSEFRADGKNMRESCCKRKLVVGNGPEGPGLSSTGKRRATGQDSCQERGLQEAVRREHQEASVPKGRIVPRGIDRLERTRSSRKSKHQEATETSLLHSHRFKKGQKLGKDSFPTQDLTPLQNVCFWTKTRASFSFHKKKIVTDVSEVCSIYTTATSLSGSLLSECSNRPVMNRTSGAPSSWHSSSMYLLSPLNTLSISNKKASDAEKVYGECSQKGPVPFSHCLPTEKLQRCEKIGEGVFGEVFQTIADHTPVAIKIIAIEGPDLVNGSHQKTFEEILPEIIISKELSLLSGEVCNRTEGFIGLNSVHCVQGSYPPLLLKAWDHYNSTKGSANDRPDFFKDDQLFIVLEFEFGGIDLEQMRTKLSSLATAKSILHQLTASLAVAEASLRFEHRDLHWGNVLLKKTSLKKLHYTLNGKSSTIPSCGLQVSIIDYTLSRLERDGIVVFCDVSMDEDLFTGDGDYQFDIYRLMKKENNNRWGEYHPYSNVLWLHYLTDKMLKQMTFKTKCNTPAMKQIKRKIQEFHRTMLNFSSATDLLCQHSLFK

[9] = biological target: Interleukin-1 receptor-associated kinase 1 (Homo sapiens) (UniProt P51617); settings: Compound concentration 1000.0 nM
[10] = biological target: Tyrosine-protein kinase Lyn (Homo sapiens) (UniProt P07948); settings: Compound concentration 1000.0 nM
[11] = biological target: Mitogen-activated protein kinase kinase kinase 1 (Homo sapiens) (UniProt Q13233); settings: Compound concentration 1000.0 nM
Mitogen-activated protein kinase kinase kinase 1 (Homo sapiens), sequence (Q13233 whole entry): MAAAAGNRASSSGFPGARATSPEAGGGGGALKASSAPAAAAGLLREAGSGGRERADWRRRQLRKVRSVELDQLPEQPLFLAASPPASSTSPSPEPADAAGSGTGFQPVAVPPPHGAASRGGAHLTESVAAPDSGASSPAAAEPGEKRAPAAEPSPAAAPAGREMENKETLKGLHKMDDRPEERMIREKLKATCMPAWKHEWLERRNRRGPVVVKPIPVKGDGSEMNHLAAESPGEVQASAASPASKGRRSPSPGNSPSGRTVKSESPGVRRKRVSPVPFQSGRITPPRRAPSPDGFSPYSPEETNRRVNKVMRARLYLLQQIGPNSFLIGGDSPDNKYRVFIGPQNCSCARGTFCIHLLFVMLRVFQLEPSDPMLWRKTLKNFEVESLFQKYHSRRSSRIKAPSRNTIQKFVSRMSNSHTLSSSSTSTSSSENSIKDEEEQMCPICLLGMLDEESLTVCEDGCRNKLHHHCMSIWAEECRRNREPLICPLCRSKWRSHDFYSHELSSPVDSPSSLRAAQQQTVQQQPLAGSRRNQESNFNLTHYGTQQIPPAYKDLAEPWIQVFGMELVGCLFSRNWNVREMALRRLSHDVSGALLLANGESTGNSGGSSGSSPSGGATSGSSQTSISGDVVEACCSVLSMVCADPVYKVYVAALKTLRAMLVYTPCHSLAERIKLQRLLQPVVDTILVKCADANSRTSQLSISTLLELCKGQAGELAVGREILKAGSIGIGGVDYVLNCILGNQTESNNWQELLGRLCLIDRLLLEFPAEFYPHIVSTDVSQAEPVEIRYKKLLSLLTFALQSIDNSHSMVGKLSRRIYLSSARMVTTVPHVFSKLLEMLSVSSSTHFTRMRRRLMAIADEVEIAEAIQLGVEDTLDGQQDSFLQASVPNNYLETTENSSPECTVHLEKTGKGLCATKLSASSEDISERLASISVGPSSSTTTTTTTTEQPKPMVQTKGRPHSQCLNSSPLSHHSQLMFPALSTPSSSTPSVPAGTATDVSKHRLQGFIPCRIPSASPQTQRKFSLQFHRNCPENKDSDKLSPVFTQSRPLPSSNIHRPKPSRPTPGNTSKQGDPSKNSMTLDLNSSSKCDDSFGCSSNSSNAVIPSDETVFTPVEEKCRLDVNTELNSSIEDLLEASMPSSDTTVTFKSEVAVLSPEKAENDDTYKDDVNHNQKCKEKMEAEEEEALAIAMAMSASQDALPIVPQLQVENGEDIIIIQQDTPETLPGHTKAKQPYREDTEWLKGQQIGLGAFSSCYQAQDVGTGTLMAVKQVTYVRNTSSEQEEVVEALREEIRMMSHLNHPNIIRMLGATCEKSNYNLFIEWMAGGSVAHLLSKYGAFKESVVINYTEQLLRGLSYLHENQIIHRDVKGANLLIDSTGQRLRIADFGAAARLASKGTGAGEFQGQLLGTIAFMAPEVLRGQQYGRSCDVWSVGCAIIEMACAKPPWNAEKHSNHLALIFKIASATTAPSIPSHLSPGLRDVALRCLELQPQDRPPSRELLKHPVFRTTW

[12] = biological target: Maternal embryonic leucine zipper kinase (Homo sapiens) (UniProt Q14680); settings: Compound concentration 1000.0 nM
Maternal embryonic leucine zipper kinase (Homo sapiens), sequence (Q14680 whole entry, looked up): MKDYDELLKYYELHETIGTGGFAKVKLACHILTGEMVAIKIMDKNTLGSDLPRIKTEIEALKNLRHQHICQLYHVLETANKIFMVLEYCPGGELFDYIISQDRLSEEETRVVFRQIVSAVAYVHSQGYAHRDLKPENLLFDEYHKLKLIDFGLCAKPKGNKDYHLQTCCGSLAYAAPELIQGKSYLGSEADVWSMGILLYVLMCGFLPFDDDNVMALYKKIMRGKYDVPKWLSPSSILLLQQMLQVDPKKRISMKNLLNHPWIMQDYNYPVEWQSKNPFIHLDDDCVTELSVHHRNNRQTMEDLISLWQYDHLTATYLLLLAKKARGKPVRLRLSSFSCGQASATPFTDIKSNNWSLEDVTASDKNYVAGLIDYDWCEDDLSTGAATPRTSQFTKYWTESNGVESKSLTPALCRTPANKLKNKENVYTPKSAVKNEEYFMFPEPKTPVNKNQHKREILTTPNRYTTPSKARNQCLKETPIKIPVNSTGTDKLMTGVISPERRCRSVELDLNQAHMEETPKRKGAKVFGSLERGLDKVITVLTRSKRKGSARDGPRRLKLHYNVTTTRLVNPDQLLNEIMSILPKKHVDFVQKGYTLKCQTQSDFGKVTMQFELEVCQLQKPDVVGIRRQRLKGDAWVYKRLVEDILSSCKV

[13] = biological target: T2, Dual specificity mitogen-activated protein kinase kinase 7 (Homo sapiens) (UniProt O14733); settings: Compound concentration 1000.0 nM
T2 sequence (whole entry): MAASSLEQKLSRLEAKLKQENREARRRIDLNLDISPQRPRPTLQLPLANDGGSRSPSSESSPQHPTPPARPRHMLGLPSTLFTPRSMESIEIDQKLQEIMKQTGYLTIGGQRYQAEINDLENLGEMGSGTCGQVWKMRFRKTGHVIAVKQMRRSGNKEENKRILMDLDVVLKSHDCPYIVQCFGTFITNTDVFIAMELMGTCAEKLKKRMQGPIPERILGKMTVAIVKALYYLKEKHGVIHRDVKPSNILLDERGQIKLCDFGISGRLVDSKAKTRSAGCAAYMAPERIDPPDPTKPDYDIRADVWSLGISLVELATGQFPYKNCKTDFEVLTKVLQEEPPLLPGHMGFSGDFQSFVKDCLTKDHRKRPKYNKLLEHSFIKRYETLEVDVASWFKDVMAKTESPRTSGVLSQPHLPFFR

[14] = biological target: T3, Serine/threonine-protein kinase Nek2 (Homo sapiens) (UniProt P51955); settings: Compound concentration 1000.0 nM
T3 sequence (whole entry): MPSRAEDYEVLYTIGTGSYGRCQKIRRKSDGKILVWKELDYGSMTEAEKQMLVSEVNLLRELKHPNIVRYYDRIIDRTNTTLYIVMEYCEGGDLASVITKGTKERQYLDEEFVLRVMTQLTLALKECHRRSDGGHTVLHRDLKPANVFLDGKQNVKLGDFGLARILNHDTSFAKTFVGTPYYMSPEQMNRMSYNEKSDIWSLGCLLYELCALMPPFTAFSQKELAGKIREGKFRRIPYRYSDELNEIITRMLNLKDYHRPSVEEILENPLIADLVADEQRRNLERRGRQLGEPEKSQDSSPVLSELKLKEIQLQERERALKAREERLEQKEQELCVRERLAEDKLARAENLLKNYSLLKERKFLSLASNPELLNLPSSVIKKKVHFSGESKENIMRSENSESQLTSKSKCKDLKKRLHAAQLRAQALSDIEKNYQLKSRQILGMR

[15] = biological target: Serine/threonine-protein kinase NIM1 (Homo sapiens) (UniProt Q8IY84); settings: Compound concentration 1000.0 nM
[16] = biological target: Serine/threonine-protein kinase pim-1 (Homo sapiens) (UniProt P11309); settings: Compound concentration 1000.0 nM
[17] = biological target: Proto-oncogene tyrosine-protein kinase receptor Ret (Homo sapiens) (UniProt P07949); settings: Compound concentration 1000.0 nM
Proto-oncogene tyrosine-protein kinase receptor Ret (Homo sapiens), sequence (P07949 whole entry): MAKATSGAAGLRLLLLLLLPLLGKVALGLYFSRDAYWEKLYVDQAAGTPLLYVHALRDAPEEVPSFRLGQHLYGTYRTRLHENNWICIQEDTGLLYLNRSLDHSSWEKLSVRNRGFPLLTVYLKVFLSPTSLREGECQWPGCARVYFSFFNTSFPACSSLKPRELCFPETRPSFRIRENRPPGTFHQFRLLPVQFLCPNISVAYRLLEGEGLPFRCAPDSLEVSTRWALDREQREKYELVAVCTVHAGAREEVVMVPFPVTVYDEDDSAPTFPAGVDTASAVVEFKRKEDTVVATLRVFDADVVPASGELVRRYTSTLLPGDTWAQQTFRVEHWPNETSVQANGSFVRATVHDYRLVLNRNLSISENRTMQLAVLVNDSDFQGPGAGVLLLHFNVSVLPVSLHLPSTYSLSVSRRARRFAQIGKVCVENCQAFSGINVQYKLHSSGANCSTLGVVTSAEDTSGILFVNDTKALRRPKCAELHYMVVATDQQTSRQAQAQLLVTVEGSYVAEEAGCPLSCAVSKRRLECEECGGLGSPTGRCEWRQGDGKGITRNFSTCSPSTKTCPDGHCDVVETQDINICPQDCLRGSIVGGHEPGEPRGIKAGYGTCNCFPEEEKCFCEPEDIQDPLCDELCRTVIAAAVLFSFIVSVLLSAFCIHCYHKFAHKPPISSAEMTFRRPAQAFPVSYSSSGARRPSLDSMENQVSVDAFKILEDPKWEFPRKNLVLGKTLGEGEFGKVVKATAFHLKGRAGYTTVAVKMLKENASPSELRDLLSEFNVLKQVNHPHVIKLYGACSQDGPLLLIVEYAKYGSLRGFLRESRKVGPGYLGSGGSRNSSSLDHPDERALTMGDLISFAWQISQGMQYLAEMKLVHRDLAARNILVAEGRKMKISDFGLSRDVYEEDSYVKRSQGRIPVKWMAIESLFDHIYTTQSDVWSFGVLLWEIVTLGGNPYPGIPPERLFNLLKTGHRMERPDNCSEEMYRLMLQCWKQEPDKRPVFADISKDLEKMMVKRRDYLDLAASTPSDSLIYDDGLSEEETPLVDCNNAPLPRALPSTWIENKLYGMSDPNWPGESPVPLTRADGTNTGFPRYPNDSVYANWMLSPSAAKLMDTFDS

[18] = biological target: Receptor-interacting serine/threonine-protein kinase 2 (Homo sapiens) (UniProt O43353); settings: Compound concentration 1000.0 nM
[19] = biological target: SRSF protein kinase 1 (Homo sapiens) (UniProt Q96SB4); settings: Compound concentration 1000.0 nM
SRSF protein kinase 1 (Homo sapiens), sequence (Q96SB4 whole entry): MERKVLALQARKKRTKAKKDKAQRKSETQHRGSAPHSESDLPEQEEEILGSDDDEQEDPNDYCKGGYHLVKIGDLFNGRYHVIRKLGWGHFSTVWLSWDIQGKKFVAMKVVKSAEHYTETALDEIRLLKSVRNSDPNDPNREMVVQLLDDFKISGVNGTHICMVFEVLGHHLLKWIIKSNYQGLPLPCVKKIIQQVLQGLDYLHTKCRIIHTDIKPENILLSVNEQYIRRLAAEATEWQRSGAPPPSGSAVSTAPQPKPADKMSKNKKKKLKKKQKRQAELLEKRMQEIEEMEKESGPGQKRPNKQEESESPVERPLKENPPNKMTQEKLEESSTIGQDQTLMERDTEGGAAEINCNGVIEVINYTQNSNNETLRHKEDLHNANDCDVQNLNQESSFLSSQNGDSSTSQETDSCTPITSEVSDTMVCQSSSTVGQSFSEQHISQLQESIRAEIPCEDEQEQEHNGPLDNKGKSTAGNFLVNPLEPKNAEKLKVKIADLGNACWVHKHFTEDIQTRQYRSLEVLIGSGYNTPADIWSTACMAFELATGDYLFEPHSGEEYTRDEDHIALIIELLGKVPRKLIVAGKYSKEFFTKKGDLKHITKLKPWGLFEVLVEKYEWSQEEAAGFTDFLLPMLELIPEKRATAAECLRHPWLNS

[20] = biological target: Kappa-type opioid receptor (Homo sapiens) (UniProt P41145); settings: Compound concentration 10.0 uM

Structure (SMILES) | residual activity [1] [%] | residual activity [2] [%] | residual activity [3] [%] | residual activity [4] [%] | residual activity [5] [%] | residual activity [6] [%] | residual activity [7] [%] | residual activity [8] [%] | residual activity [9] [%] | residual activity [10] [%] | residual activity [11] [%] | residual activity [12] [%] | residual activity [13] [%] | residual activity [14] [%] | residual activity [15] [%] | residual activity [16] [%] | residual activity [17] [%] | residual activity [18] [%] | residual activity [19] [%] | inhibition [20] [%]
CCc1ccccc1C(=O)Nc1n[nH]c2c(C)c(F)c(C3C(C#N)=C(C)N(C)C(C)=C3C#N)cc12 [BAY-3827] | 100 | 97 | 85 | 98 | 96 | 87 | 64 | 100 | 100 | 86 | 100 | 43 | 100 | 87 | 100 | 100 | 65 | 100 | 89 | 16.1
CC1=C(C#N)C(c2ccc3c(c2)c(NC(=O)c2ccccc2C)nn3C)C(C#N)=C(C)N1 [BAY-974] | 78 | 82 | 82 | 100 | 70 | 79 | 100 | 71 | 75 | 89 | 51 | 81 | 65 | 100 | 86 | 100 | 97 | 100 | 89 | 21.6
